In the first test the target is T1, Thymidine kinase (Human alphaherpesvirus 1, UniProt Q9QNF7).
T1 sequence (Q9QNF7 whole entry): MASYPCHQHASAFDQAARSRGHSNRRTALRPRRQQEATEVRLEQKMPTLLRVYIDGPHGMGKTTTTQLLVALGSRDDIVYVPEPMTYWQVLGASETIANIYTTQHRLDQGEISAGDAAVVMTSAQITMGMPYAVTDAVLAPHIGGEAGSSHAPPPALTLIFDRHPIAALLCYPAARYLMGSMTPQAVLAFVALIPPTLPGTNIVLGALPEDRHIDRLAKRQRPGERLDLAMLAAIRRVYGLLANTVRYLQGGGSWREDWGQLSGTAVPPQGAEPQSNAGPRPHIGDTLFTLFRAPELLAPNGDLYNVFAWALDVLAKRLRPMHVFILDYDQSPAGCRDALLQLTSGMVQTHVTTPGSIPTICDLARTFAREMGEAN
Put plainly: Inhibition of TdR phosphorylation using thymidine kinase (TK) assay for herpes simplex virus type 1 (HSV-1). It is filed as functional.
Molecule `CCCCCCNC1=NC(=O)C2N=CN([C@H]3C[C@H](O)[C@@H](CO)O3)C2=N1` (some centres not stated) came in with a Ki of 2.6 µM.

The next test concerns the target T1, Thymidine kinase. Put plainly: Inhibition of TdR phosphorylation using thymidine kinase assay for herpes simplex virus type 1. It is filed as functional.
Take `CCCCc1ccc(Nc2nc3nc[nH]c3c(=O)[nH]2)cc1`: half-maximal inhibition (IC50) required 50 µM. `O=c1nc(Nc2cccc(CO)c2)[nH]c2nc[nH]c12` returned an IC50 of 25 µM.

`O=c1[nH]c(NCc2ccc(Cl)cc2)nc2nc[nH]c12` had a half-maximal inhibitory concentration (IC50) of 8.5 µM.

As for `OCCCCCNc1nc(O)c2[nH]cnc2n1`, the concentration for half-maximal inhibition (IC50) worked out at 100 µM. Compared with the last molecule, the IC50 is about 12-fold higher.

For the molecule `Oc1[nH]c(Nc2ccc(F)c(Cl)c2)nc2ncnc1-2`, half-maximal inhibition (IC50) required 8 µM.

With `O=c1[nH]c(Nc2ccc(F)c(F)c2)nc2nc[nH]c12`, it took 50 µM to reach half-maximal inhibition (IC50). Compared with the last molecule, the IC50 is about 6.2-fold higher. `CCc1cccc(Nc2nc3nc[nH]c3c(=O)[nH]2)c1` gave an IC50 of 2.5 µM.

In turn, `Cc1ccc(Nc2nc3nc[nH]c3c(=O)[nH]2)cc1` returned a half-maximal inhibitory concentration (IC50) of 50 µM. Compared with the last molecule, the IC50 is about 20-fold higher. In the case of `O=c1[nH]c(Nc2cccc(C(F)(F)F)c2)nc2nc[nH]c12`, half-maximal inhibition (IC50) was put at 0.15 µM. Against the preceding molecule, the IC50 is about 330-fold lower. Turning to `Oc1[nH]c(Nc2cccc(Cl)c2)nc2ncnc1-2`, half-maximal inhibition (IC50) was put at 1.3 µM. Same read-out and setting: in the case of `Oc1[nH]c(Nc2ccc(Br)cc2)nc2ncnc1-2` it was 1 µM. Same read-out and setting: in the case of `O=c1[nH]c(Nc2ccc(O)cc2)nc2nc[nH]c12` it was 140 µM; in that of `Oc1[nH]c(Nc2ccc3ccccc3c2)nc2ncnc1-2`, 40 µM.

In the case of `Oc1[nH]c(Nc2ccc(C(F)(F)F)cc2)nc2ncnc1-2`, the IC50 is 30 µM. `CCCCCCNc1nc(O)c2[nH]cnc2n1` came in with an IC50 of 55 µM. The same measure, in the same setting: in the case of `Oc1[nH]c(Nc2ccc(Br)c(Br)c2)nc2ncnc1-2` it was 3 µM.

Usually Ki stands for the dissociation constant of the complex between target and ligand, obtained from inhibition or displacement. A high value points to lower affinity. The IC50 is the concentration that gives 50% inhibition.

Source of the values: ChEMBL document CHEMBL1125141, “Structure-activity relationships of N2-substituted guanines as inhibitors of HSV1 and HSV2 thymidine kinases” (J Med Chem, 1990).
